Assay [1] concerns HCT116 cells. Put plainly: CPT11-induced cell death after cGMP preconditioning, HCT116 cells. Format: cell-based, human. Particulars: HCT116 cells preconditioned with cGMP. How it is done: (§1) Experiments were performed to show the requirement of GCC activation in the protection of small intestine and colon cells from apoptosis and genotoxic induced cell death. The role of activation of GCC and of the presence of p53 was also evaluated. Test on cancer cells were performed to compare the protection by cGMP of colon cancer cells from cell death in compared to cGMP's potentiation of cell death in other cancers.

For assay [2], the system named is human colon cells. As to the kind of experiment: Cell death after irinotecan (CPT11) challenge, human colon cells. Format: cell-based. Particulars: irinotecan (CPT11, 100 μM). Here is the method: as §1
The subject of assay [3] is HCT116 cells (P53 wildtype). As to the kind of experiment: IR-induced cell death after cGMP preconditioning, HCT116 (P53 wildtype). Format: cell-based, human. Particulars: HCT116 cells (P53 wildtype) preconditioned with cGMP; FIG. 3 (A). Here is the method:
as §1

In assay [4] the test system is human liver cancer cells. Put plainly: CPT11-induced cell death after cGMP preconditioning, liver cancer cells. Format: cell-based. Particulars: cGMP precondition. Here is the method: as §1
Assay [5] has as its system human prostate cancer cells. As to the kind of experiment: CPT11-induced cell death after cGMP preconditioning, prostate cancer cells. It counts as cell-based. Particulars: cGMP precondition. Here is the method:
as §1

For assay [6], the system named is human breast cancer cells. Put plainly: CPT11-induced cell death after cGMP preconditioning, breast cancer cells. Particulars: cGMP precondition. It counts as cell-based. How it is done: as §1
Assay [7] has as its system HCT116P53−/− cells (P53 null). Put plainly: IR-induced cell death after cGMP preconditioning, HCT116 P53 null. Particulars: HCT116P53−/− cells (P53 null) preconditioned with cGMP; FIG. 3 (B). Format: cell-based, human. How it is done: as §1
The test system of assay [8] is irradiated intestinal tissue. Particulars: cited from earlier work.
Assay [9] concerns the target ST receptors / guanylate cyclase (Homo sapiens, UniProt P25092). Particulars: compared with native ST; cited from earlier work.

Read-outs that look alike come from different tables or passages of the source. No end group written: not given here.

Sequence of ST receptors / guanylate cyclase (P25092 24-1073): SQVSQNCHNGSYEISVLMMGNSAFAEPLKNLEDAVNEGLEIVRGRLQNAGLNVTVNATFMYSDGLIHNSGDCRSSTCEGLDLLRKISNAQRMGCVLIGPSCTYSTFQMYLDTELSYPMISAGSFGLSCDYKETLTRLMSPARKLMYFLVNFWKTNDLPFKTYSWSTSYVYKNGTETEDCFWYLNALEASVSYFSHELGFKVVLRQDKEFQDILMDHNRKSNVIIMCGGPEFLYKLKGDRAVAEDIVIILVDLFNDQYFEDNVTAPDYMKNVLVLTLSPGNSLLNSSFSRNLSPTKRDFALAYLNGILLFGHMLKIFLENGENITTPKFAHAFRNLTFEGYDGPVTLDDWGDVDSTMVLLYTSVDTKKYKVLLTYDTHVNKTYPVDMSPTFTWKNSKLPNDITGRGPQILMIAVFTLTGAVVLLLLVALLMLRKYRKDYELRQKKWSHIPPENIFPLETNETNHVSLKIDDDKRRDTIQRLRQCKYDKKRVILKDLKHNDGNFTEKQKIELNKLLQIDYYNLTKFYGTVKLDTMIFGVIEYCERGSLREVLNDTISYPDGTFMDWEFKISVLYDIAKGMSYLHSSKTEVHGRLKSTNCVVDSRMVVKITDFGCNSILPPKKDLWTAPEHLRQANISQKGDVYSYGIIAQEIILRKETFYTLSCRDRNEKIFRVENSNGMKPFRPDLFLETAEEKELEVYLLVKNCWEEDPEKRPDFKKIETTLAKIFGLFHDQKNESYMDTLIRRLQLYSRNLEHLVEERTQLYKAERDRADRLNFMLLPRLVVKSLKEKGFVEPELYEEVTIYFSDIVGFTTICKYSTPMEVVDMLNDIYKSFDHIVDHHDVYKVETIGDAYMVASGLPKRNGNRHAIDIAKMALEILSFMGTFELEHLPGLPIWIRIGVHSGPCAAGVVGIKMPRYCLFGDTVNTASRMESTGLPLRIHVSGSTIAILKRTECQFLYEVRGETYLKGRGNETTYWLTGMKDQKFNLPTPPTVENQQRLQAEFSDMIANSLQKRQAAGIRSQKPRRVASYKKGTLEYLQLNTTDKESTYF

As to `Nc1nc2c(ncn2[C@@H]2O[C@@H]3COP(=O)(O)O[C@H]3[C@H]2O)c(=O)[nH]1` [cGMP, cyclic GMP], the CPT11-induced cell death entry in assay [1] is “resisted CPT11-induced cell death”. In addition, in assay [1], the “P53 dependence of protection from CPT11-induced cell death” value is on record as “protection was P53 dependent”. Further, the “cell death in response to irinotecan challenge” value in assay [2] was “protected cell death”. The IR-induced cell death entry in assay [3] is listed as “resisted IR-induced cell death”. Besides, the “cell death induced by CPT11” value in [4], in assay [5] and in [6] was “promoted cell death” each time. Further, the “protection from IR-induced cell death” value in assay [7] is on record as “protection by cGMP preconditioning did not occur”. In addition, the “level of apoptosis in irradiated intestinal tissue” value in assay [8] (mice lacking genes encoding GCC or uroguanylin, cGMP supplementation (cGMP analog injected)) was “ameriolated the level of apoptosis”; in assay [8] (wild type mice, cGMP supplementation) it was “not in wild type mice”.

On to “Guanylin: 15 amino acid peptide from mammalian intestine, about 50% sequence homology to ST; native GCC agonist (SEQ ID NO:6, 54) (PGTCEICAYAACTGC; ends and bridges not checked; cysteine pairing not given here; UniProt Q02747 101-115, looked up)”, for which the “binding to ST receptors and activation of guanylate cyclase, level relative to native ST” value in assay [9] was 10- to 100 fold less than native ST.

(Values after US20140255518A1, “Treatment and Prevention of Gastrointestinal Syndrome” (THOMAS JEFFERSON UNIVERSITY HOSPITALS, INC., priority 2011, published 2014).)
